We go through 17 compounds from patent US11136301B2, “Broad spectrum antiviral compounds and uses thereof” (The Regents Of The University Of California, priority 2015, dated 2021).

For orientation: IC50 means the concentration needed to halve the response being measured.

“Also recorded” adds a separate entry of the source. Where two headings read alike, the source gives them in different places.

Assay [1] deals with wild-type HIV-1 (HIV-1LAI) in H9 cells (non-permissive). Nature of the assay: microbe, parasite or virus in culture. In kind it is cell-based.
Assay [2] has as its system wild-type HIV-1 (HIV-1LAI) in MT-4 cells (permissive). Nature of the assay: Antiviral activity assay: wild-type HIV-1 in permissive MT4 cells, reverse transcriptase activity in culture supernatants. In kind it is cell-based.
The subject of assay [3] is HA-tagged A3G and GFP-tagged Vif or ΔVif in 293FT cells. Nature of the assay: Immunoblot of A3G and Vif levels in transfected 293FT cells. To be noted: 293FT cells, 50 μM, 16 h. Background: In western blotting, separated proteins are transferred to a membrane and probed.
Where [4] appears, read: Human immunodeficiency virus 1, H9, read-out: Antiviral activity (IC50 μM) H9, Table 2, wild-type HIV-1, non-permissive H9 cells.
Setting [5] is: Human immunodeficiency virus 1, H9, read-out: Antiviral activity (IC50 μM) H9 Cells, Table 4, wild-type HIV-1, non-permissive H9 cells.
The mark [6] stands for this setting: Human immunodeficiency virus 1, H9, read-out: Antiviral activity (IC50 μM) H9 Cells, Table 7, wild-type HIV-1, non-permissive H9 cells.
Where [7] appears, read: Human immunodeficiency virus 1, H9, read-out: Antiviral activity (IC50 μM) H9 cells, Table 5, wild-type HIV-1, non-permissive H9 cells.
Where [8] appears, read: Human immunodeficiency virus 1, H9, read-out: Antiviral activity (IC50 μM) H9 cells, Table 8, wild-type HIV-1, non-permissive H9 cells.
[9] abbreviates: Human immunodeficiency virus 1, H9, read-out: Antiviral activity (IC50 μM) H9 cells, wild-type HIV-1 (HIV-1LAI), H9 cells (non-permissive), RT activity in culture supernatants, compounds 1 to 50 μM.
Setting [10] is: Human immunodeficiency virus 1, H9, read-out: IC50, anti-HIV-1 activity, non-permissive H9 cells.
Where [11] appears, read: Human immunodeficiency virus 1, MT4, Table 2, wild-type HIV-1, permissive MT4 cells, read-out: Antiviral activity (IC50 μM) MT4.
[12] abbreviates: Human immunodeficiency virus 1, MT4, wild-type HIV-1 (HIV-1LAI), MT4 cells (permissive), RT activity in culture supernatants, compounds 1 to 50 μM, read-out: Antiviral activity (IC50 μM) MT4 cells.

As for `COc1ccccc1-n1cc(-c2ccccc2S(=O)(=O)c2ccc(N)cc2)nn1` [Compound 2ey, 4-((2-(1-(2-Methoxyphenyl)-1H-1,2,3-triazol-4-yl)phenyl)sulfonyl)aniline], the IC50 in assay [1] (setting [4]), in assay [1] (setting [5]), in assay [1] (setting [6]), in assay [1] (setting [7]), in assay [1] (setting [8]) and in assay [1] (setting [9]) was 0.4 µM throughout. The IC50 in assay [1] (setting [10]) is 0.4 µM; in assay [2] (setting [11]), > 50 µM; in assay [2] (setting [12]), > 50 µM. In assay [3], the “upregulation of A3G and downregulation of Vif (immunoblots, FIG. 16)” value was “same mechanism as of RN-18; also recorded: same mechanism as observed for RN-18 and 1d”.
For `COc1ccccc1-n1cc(-c2ccccc2Sc2ccc(C(F)(F)F)cc2)nn1` [Compound 2dx, 1-(2-Methoxyphenyl)-4-(2-((4-(trifluoromethyl)phenyl)thio)phenyl)-1H-1,2,3-triazole], the IC50 in assay [1] (setting [4]), in assay [1] (setting [5]), in assay [1] (setting [6]), in assay [1] (setting [7]), in assay [1] (setting [8]) and in assay [1] (setting [9]) was 2.6 µM throughout. Also, the IC50 is 1 to 3 µM in assay [1] (setting [10]), > 50 µM in assay [2] (setting [11]) and > 50 µM in assay [2] (setting [12]). Moreover, the “upregulation of A3G and downregulation of Vif (immunoblots, FIG. 16)” value in assay [3] was “same mechanism as of RN-18; also recorded: same mechanism as observed for RN-18 and 1d”.
In the case of `COc1ccc(OC)c(-n2cc(-c3ccccc3Sc3ccc(N)cc3)nn2)c1` [Compound 5ex, 4-((2-(1-(2,5-Dimethoxyphenyl)-1H-1,2,3-triazol-4-yl)phenyl)thio)aniline], the IC50 in assay [1] (setting [4]), in assay [1] (setting [7]), in assay [1] (setting [8]), in assay [1] (setting [9]), in assay [2] (setting [11]) and in assay [2] (setting [12]) was > 50 µM each time.
As for `COc1cccc(-n2cc(-c3ccccc3Sc3ccc([N+](=O)[O-])cc3)nn2)c1OC` [Compound 3ax, 1-(2,3-Dimethoxyphenyl)-4-(2-((4-nitrophenyl)thio)phenyl)-1H-1,2,3-triazole], the IC50 in assay [1] (setting [4]), in assay [1] (setting [5]), in assay [1] (setting [6]), in assay [1] (setting [7]), in assay [1] (setting [8]) and in assay [1] (setting [9]) was 1.1 µM in each case. In addition, the IC50 was 1 to 3 µM in assay [1] (setting [10]), > 50 µM in assay [2] (setting [11]) and > 50 µM in assay [2] (setting [12]).
In the case of `COc1ccccc1-n1cc(-c2ccccc2Sc2ccc(N)cc2)nn1` [Compound 2ex, 4-((2-(1-(2-Methoxyphenyl)-1H-1,2,3-triazol-4-yl)phenyl)thio)aniline], the IC50 in assay [1] (setting [4]) was 2.5 µM; in assay [1] (setting [5]), 7.5 µM; in assay [1] (setting [6]), 2.5 µM; in assay [1] (setting [7]) it was 2.5 µM; in assay [1] (setting [8]) it was 2.5 µM; in assay [1] (setting [9]), 2.5 µM. In addition, the IC50 in assay [1] (setting [10]) was 1 to 3 µM; in assay [2] (setting [11]) it was > 50 µM; in assay [2] (setting [12]), > 50 µM.
On to `COc1ccc(S(=O)(=O)c2ccccc2-c2cn(-c3cc(OC)ccc3OC)nn2)cc1` [Compound 5cy, 1-(2,5-Dimethoxyphenyl)-4-(2-((4-methoxyphenyl)sulfonyl)phenyl)-1H-1,2,3-triazole], for which the 50% inhibitory concentration (IC50) in assay [1] (setting [4]), in assay [1] (setting [7]), in assay [1] (setting [8]), in assay [1] (setting [9]), in assay [2] (setting [11]) and in assay [2] (setting [12]) was > 50 µM in each case.
Turning to `COc1cccc(-n2cc(-c3ccccc3S(=O)(=O)c3ccc(C(F)(F)F)cc3)nn2)c1OC` [Compound 3dy, 1-(2,3-Dimethoxyphenyl)-4-(2-((4-(trifluoromethyl)phenyl)sulfonyl)phenyl)-1H-1,2,3-triazole], the IC50 in assay [1] (setting [4]), in assay [1] (setting [7]), in assay [1] (setting [8]), in assay [1] (setting [9]), in assay [2] (setting [11]) and in assay [2] (setting [12]) was > 50 µM each time.
Turning to `COC(=O)c1ccc(S(=O)(=O)c2ccccc2-c2cn(-c3c(OC)cccc3OC)nn2)cc1` [Compound 6by, Methyl 4-((2-(1-(2,6-dimethoxyphenyl)-1H-1,2,3-triazol-4-yl)phenyl)sulfonyl)benzoate], the IC50 in assay [1] (setting [4]), in assay [1] (setting [7]), in assay [1] (setting [8]), in assay [1] (setting [9]), in assay [2] (setting [11]) and in assay [2] (setting [12]) was > 50 µM each time.
Regarding `COc1ccc(Sc2ccccc2-c2cn(-c3cc(OC)ccc3OC)nn2)cc1` [Compound 5cx, 1-(2,5-Dimethoxyphenyl)-4-(2-((4-methoxyphenyl)thio)phenyl)-1H-1,2,3-triazole], the IC50 in assay [1] (setting [4]), in assay [1] (setting [5]), in assay [1] (setting [6]), in assay [1] (setting [7]), in assay [1] (setting [8]) and in assay [1] (setting [9]) was 15.7 µM throughout. Further, the IC50 in assay [2] (setting [11]) and in assay [2] (setting [12]) was > 50 µM in each case.
For `COc1ccc(OC)c(-n2cc(-c3ccccc3S(=O)(=O)c3ccc(C(=O)O)cc3)nn2)c1` [Compound 5fy, 4-((2-(1-(2,5-Dimethoxyphenyl)-1H-1,2,3-triazol-4-yl)phenyl)sulfonyl)benzoic Acid], the IC50 in assay [1] (setting [4]), in assay [1] (setting [7]), in assay [1] (setting [8]), in assay [1] (setting [9]), in assay [2] (setting [11]) and in assay [2] (setting [12]) was > 50 µM in each case.
As to `COc1cccc(OC)c1-n1cc(-c2ccccc2Sc2ccc(C(=O)O)cc2)nn1` [Compound 6fx, 4-((2-(1-(2,6-Dimethoxyphenyl)-1H-1,2,3-triazol-4-yl)phenyl)thio)benzoic Acid], the IC50 in assay [1] (setting [4]), in assay [1] (setting [5]), in assay [1] (setting [6]), in assay [1] (setting [7]), in assay [1] (setting [8]) and in assay [1] (setting [9]) was 1.9 µM in each case. For the same compound, the IC50 in assay [1] (setting [10]) is 1 to 3 µM; in assay [2] (setting [11]), > 50 µM; in assay [2] (setting [12]), > 50 µM.
As for `COc1ccc(-n2cc(-c3ccccc3Sc3ccc(C(=O)O)cc3)nn2)c(OC)c1` [Compound 4fx, 4-((2-(1-(2,4-Dimethoxyphenyl)-1H-1,2,3-triazol-4-yl)phenyl)thio)benzoic Acid], the IC50 in assay [1] (setting [4]), in assay [1] (setting [5]), in assay [1] (setting [6]), in assay [1] (setting [7]), in assay [1] (setting [8]) and in assay [1] (setting [9]) was 7.1 µM in each case. For the same compound, the IC50 in assay [2] (setting [11]) and in assay [2] (setting [12]) was > 50 µM in each case.
Take `COc1ccc(-n2cc(-c3ccccc3S(=O)(=O)c3ccc([N+](=O)[O-])cc3)nn2)c(OC)c1` [Compound 4ay, 1-(2,4-Dimethoxyphenyl)-4-(2-((4-nitrophenyl)sulfonyl)phenyl)-1H-1,2,3-triazole]: the IC50 in assay [1] (setting [4]), in assay [1] (setting [7]), in assay [1] (setting [8]), in assay [1] (setting [9]), in assay [2] (setting [11]) and in assay [2] (setting [12]) was > 50 µM each time.
Consider `COc1ccc(OC)c(-n2cc(-c3ccccc3Sc3ccc(C(F)(F)F)cc3)nn2)c1` [Compound 5dx, 1-(2,5-Dimethoxyphenyl)-4-(2-((4-(trifluoromethyl)phenyl)thio)phenyl)-1H-1,2,3-triazole], for which the IC50 is 46.4 µM in assay [1] (setting [4]); 46.4 µM in assay [1] (setting [7]); 46.4 µM in assay [1] (setting [8]); 46.4 µM in assay [1] (setting [9]); > 50 µM in assay [2] (setting [11]); > 50 µM in assay [2] (setting [12]).
Consider `COc1cccc(F)c1-n1cc(-c2ccccc2Sc2ccc(C(=O)O)cc2)nn1` [Compound 7fx, 4-((2-(1-(2-Fluoro-6-methoxyphenyl)-1H-1,2,3-triazol-4-yl)phenyl)thio)benzoic Acid], for which the IC50 in assay [1] (setting [4]), in assay [1] (setting [5]), in assay [1] (setting [6]), in assay [1] (setting [7]), in assay [1] (setting [8]) and in assay [1] (setting [9]) was 4.9 µM in each case. For the same compound, the IC50 in assay [2] (setting [11]) and in assay [2] (setting [12]) was > 50 µM throughout.
As to `COc1ccc(-n2cc(-c3ccccc3S(=O)(=O)c3ccc(C(F)(F)F)cc3)nn2)c(OC)c1` [Compound 4dy, 1-(2,4-Dimethoxyphenyl)-4-(2-((4-(trifluoromethyl)phenyl)sulfonyl)phenyl)-1H-1,2,3-triazole], the IC50 in assay [1] (setting [4]), in assay [1] (setting [5]), in assay [1] (setting [6]), in assay [1] (setting [7]), in assay [1] (setting [8]) and in assay [1] (setting [9]) was 12 µM throughout. Also, the IC50 in assay [2] (setting [11]) and in assay [2] (setting [12]) was > 50 µM in each case.
With `COc1ccc(S(=O)(=O)c2ccccc2-c2cn(-c3c(OC)cccc3OC)nn2)cc1` [Compound 6cy, 1-(2,6-Dimethoxyphenyl)-4-(2-((4-methoxyphenyl)sulfonyl)phenyl)-1H-1,2,3-triazole], the IC50 in assay [1] (setting [4]), in assay [1] (setting [7]), in assay [1] (setting [8]), in assay [1] (setting [9]), in assay [2] (setting [11]) and in assay [2] (setting [12]) was > 50 µM each time.
